Assay: xn = mol fraction of the nth substance listed
Conditions: 100 kPa

CNc1ccccc1 + CC[n+]1ccn(C)c1.F[B-](F)(F)F
speed of sound [m/s]
Conditions	x2 = 0	x2 = 0.1046	x2 = 0.2048	x2 = 0.3057	x2 = 0.3985	x2 = 0.5064	x2 = 0.6045	x2 = 0.6994	x2 = 0.8005	x2 = 0.9084
293.15 K	–	1603.9	1617.6	1627.9	1632.7	1632.5	–	1627.7	1625.9	1627
303.15 K	–	1568.9	1586.9	–	1603.8	1604.7	1604.1	1602.6	1601.3	1604
313.15 K	1511.7	–	–	1567	1574.4	1576.1	1578.3	1577.9	1576.2	1579.4
323.15 K	1476.4	1500.3	1523.6	1537.2	1545.6	1549	–	1551.6	1550.4	1553.3

CC[n+]1ccn(C)c1.F[B-](F)(F)F + CNc1ccccc1
x1 = 1
Conditions	speed of sound [m/s]
293.15 K	1632.6
303.15 K	1609.5
313.15 K	1586.2
323.15 K	1563.4

Reference: a compilation of properties of binary mixtures (doi:10.1007/s10953-017-0578-y)
